Results reported in ChEMBL document CHEMBL1123115, “Synthesis and antiviral activity of 11-azapentacyclo[6.2.1.0.0.0]decane” (J Med Chem, 1985).

Columns and labels:
Human alphaherpesvirus 1 = experiment: Effect on herpes simplex virus HSV-1; Ineffective; format: functional, organism-based
Human alphaherpesvirus 2 = experiment: Effect on herpes simplex virus HSV-2; Ineffective; format: functional, organism-based

**Q.** For `C1C2C3CC4C1C1C2NC3C41` (configuration not stated), which Activity (Human alphaherpesvirus 1) is on record?
**A.** Ineffective

**Q.** And the Activity (Human alphaherpesvirus 2)?
**A.** Ineffective
